Data taken from patent EP0363829A2, “Predicting sensitivity to injectable radio contrast media with histamine release test” (MILES INC., priority 1988, dated 1990).

What was measured:
[1] = parameters: species or system patients; details: human, in vivo
Procedure: A clinical study was performed to test the hypothesis that sensitivity (allergy) to radio contrast media could be predicted by the results of the histamine release test described herein. Histamine release from a blood sample from patients who would later be tested with a radio contrast media was measured. The results were later compared with the occurrence of an allergic reaction to the administration of the radio contrast media.

[2] = tested on: basophils; type: cell-based, patients
Procedure: In the first step a histamine-protein conjugate is adsorbed to 94 polystyrene pegs simultaneously. This is accomplished by submerging the pegs into wells of a 96 well microtiter plate (referred to as the adsorption plate) that contain a solution of a histamine-BSA conjugate. Two microtiter wells contain only BSA and are used as negative controls. Following a one hour incubation period at room temperature, the pegs are removed and washed to remove non-adsorbed conjugate.
A second 96 well microtiter plate (referred to as the release plate) containing various dilutions of RCM or histamine is also prepared. […]
The relative concentration of the monoclonal antibody-horseradish peroxidase conjugate bound to the histamine-BSA conjugate on the polystyrene pegs is now estimated by immersing the pegs in a third microtiter plate (referred to as the chromogen plate) containing a chromogenic substrate for horseradish peroxidase, 2, 2′-azino-di-(3-ethyl-benzothiazoline)-6-sulfonic acid (ABTS®). […] Quantitative assessment of histamine release can be made if a Microtiter ELISA Reader is available. […]
The radio contrast media (RCM) to be tested as the allergen was diluted into 8 to 9 serial dilutions using Tris ACM or distilled water as diluent. […] The release plate was then ready for use. […]

Structure (SMILES): CC(=O)Nc1c(I)c(NC(C)=O)c(I)c(C(=O)O)c1I [Hypaque]
- patients with an allergic reaction to the injection of the radio contrast media [1]: one
- degree of histamine release [2]: highest degree of histamine release
- histamine release [2]: significantly more histamine release
